Results on 25 compounds are retold here after patent US9844550B2, “Phtalazinone derivatives and manufacturing process thereof” (ILDONG PHARM CO., LTD., priority 2013, dated 2017).

By IC50 is commonly meant the concentration that inhibits the measured activity by half. The low end stands for greater potency in that assay, the high end for weaker potency in that assay.

This test concerns MDA-MB-436 breast cancer cell line. Nature of the test: Cell viability assay (MDA-MB-436). The conditions noted are these: Homo sapiens, 144 h; MDA-MB-436 cells, treated 6 days. Format: cell-based. As to the method: 2. Cell Viability Assay (MDA-MB-436)
Cell viability assay was performed by using MDA-MB-436 cell line to measure cytotoxicity of compounds in the present invention. MDA-MB-436 breast cancer cell line was seeded into 96-well plates at 37° C. under 5% CO2 atmosphere using DMEM/F12 (Gibco) containing 10% FBS (Hyclone). After 24 hr incubation, cells were treated with the invented compounds at various concentrations for 6 days. The medium was changed every 3 day. 6 days later, A fluorescence reagent was used to determine the IC50 values.
On to `O=C(c1cc(Cc2n[nH]c(=O)c3ccccc23)ccc1F)N1CC(NCc2ccccc2)C1` [Compound I-133, 4-(3-(3-(benzylamino)azetidine-1-carbonyl)-4-fluorobenzyl)phthalazin-1(2H)-one], for which the IC50 lay within 50 to 300 nM.

In turn, `CCC(C#N)NC1CN(C(=O)c2cc(Cc3n[nH]c(=O)c4ccccc34)ccc2F)C1` (stereo not shown) [Compound I-101, 2-((1-(2-fluoro-5-((4-oxo-3,4-dihydrophthalazin-1-yl)methyl)benzoyl)azetidin-3-yl)amino)butanenitrile] showed an IC50 of 300 to 1000 nM.

`CC(C)[C@@H](C)NC1CN(C(=O)c2cc(Cc3n[nH]c(=O)c4ccccc34)ccc2F)C1` [Compound I-88, (R)-4-(4-fluoro-3-(3-((3-methylbutan-2-yl)amino)azetidine-1-carbonyl)benzyl)phthalazin-1(2H)-one]: the IC50 was at most 5 nM.

The compound `CC(C)(C)CNC1CN(C(=O)c2cc(Cc3n[nH]c(=O)c4ccccc34)ccc2F)C1` [Compound I-37, 4-(4-fluoro-3-(3-(neopentylamino)azetidine-1-carbonyl)benzyl)phthalazin-1(2H)-one] showed an IC50 of 5 to 50 nM.

`CCCCCNC1CN(C(=O)c2cc(Cc3n[nH]c(=O)c4ccccc34)ccc2F)C1` [Compound I-57, 4-(4-fluoro-3-(3-(pentylamino)azetidine-1-carbonyl)benzyl)phthalazin-1(2H)-one] registered an IC50 of 5 to 50 nM.

`O=C(c1cc(Cc2n[nH]c(=O)c3ccccc23)ccc1F)N1CC(N[C@@H]2CCNC2)C1` [Compound I-96, (R)-4-(4-fluoro-3-(3-(pyrrolidin-3-ylamino)azetidine-1-carbonyl)benzyl)phthalazin-1(2H)-one] registered an IC50 of 300 to 1000 nM.

Turning to `O=C(c1cc(Cc2n[nH]c(=O)c3ccccc23)ccc1F)N1CC(NC2(CO)CC2)C1` [Compound I-84, 4-(4-fluoro-3-(3-((1-(hydroxymethyl)cyclopropyl)amino)azetidine-1-carbonyl)benzyl)phthalazin-1(2H)-one], the IC50 is 50 to 300 nM.

Compound `CCCNC1CN(C(=O)c2cc(Cc3n[nH]c(=O)c4ccccc34)ccc2F)C1` [Compound I-59, 4-(4-fluoro-3-(3-(propylamino)azetidine-1-carbonyl)benzyl)phthalazin-1(2H)-one] returned a concentration for half-maximal inhibition (IC50) of 5 to 50 nM.

Consider `CC(C)[C@H](C)NC1CN(C(=O)c2cc(Cc3n[nH]c(=O)c4ccccc34)ccc2F)C1` [Compound I-89, (S)-4-(4-fluoro-3-(3-((3-methylbutan-2-yl)amino)azetidine-1-carbonyl)benzyl)phthalazin-1(2H)-one], for which the concentration for half-maximal inhibition (IC50) was in the range of 5 to 50 nM.

As to `CN(CC1CN(C(=O)c2cc(Cc3n[nH]c(=O)c4ccccc34)ccc2F)C1)C1CC1` [Compound I-154, 4-(3-(3-((cyclopropyl(methyl)amino)methyl)azetidine-1-carbonyl)-4-fluorobenzyl)phthalazin-1(2H)-one], the IC50 fell in the range of 300 to 1000 nM.

As to `C[C@H](NC1CN(C(=O)c2cc(Cc3n[nH]c(=O)c4ccccc34)ccc2F)C1)C(C)(C)C` [Compound I-87, (S)-4-(3-(3-((3,3-dimethylbutan-2-yl)amino)azetidine-1-carbonyl)-4-fluorobenzyl)phthalazin-1(2H)-one], the IC50 lay in the range of 300 to 1000 nM.

In the case of `C#Cc1cnc(N[C@@H]2CCN(C(=O)c3cc(Cc4n[nH]c(=O)c5ccccc45)ccc3F)C2)nc1` [Compound I-125, (R)-4-(3-(3-((5-ethynylpyrimidin-2-yl)amino)pyrrolidine-1-carbonyl)-4-fluorobenzyl)phthalazin-1(2H)-one], the 50% inhibitory concentration (IC50) is at most 5 nM.

`O=C(c1cc(Cc2n[nH]c(=O)c3ccccc23)ccc1F)N1CC(N2CCCC2)C1` [Compound I-76, 4-(4-fluoro-3-(3-(pyrrolidin-1-yl)azetidine-1-carbonyl)benzyl)phthalazin-1(2H)-one] came in with a 50% inhibitory concentration (IC50) of 5 to 50 nM.

In the case of `CCN(CC1CN(C(=O)c2cc(Cc3n[nH]c(=O)c4ccccc34)ccc2F)C1)C1CC1` [Compound I-155, 4-(3-(3-((cyclopropyl(ethyl)amino)methyl)azetidine-1-carbonyl)-4-fluorobenzyl)phthalazin-1(2H)-one], the IC50 fell in the range of 50 to 300 nM.

On to `N#CC1(NC2CN(C(=O)c3cc(Cc4n[nH]c(=O)c5ccccc45)ccc3F)C2)CCCC1` [Compound I-98, 1-((1-(2-fluoro-5-((4-oxo-3,4-dihydrophthalazin-1-yl)methyl)benzoyl)azetidin-3-yl)amino)cyclopentanecarbonitrile], for which the IC50 lay in the range of 300 to 1000 nM.

`O=C(c1cc(Cc2n[nH]c(=O)c3ccccc23)ccc1F)N1CC(NCCCC(F)(F)F)C1` [Compound I-56, 4-(4-fluoro-3-(3-((4,4,4-trifluorobutyl)amino)azetidine-1-carbonyl)benzyl)phthalazin-1(2H)-one] returned an IC50 of 300 to 1000 nM.

The compound `O=C(c1cc(Cc2n[nH]c(=O)c3ccccc23)ccc1F)N1CC(N(CC2CC2)CC2CC2)C1` [Compound I-34, 4-(3-(3-(bis(cyclopropylmethyl)amino)azetidine-1-carbonyl)-4-fluorobenzyl)phthalazin-1(2H)-one] returned an IC50 of 300 to 1000 nM.

For the compound `CN(c1ccc(Cl)nn1)C1CN(C(=O)c2cc(Cc3n[nH]c(=O)c4ccccc34)ccc2F)C1` [Compound I-115, 4-(3-(3-((6-chloropyridazin-3-yl)(methyl)amino)azetidine-1-carbonyl)-4-fluorobenzyl)phthalazin-1(2H)-one], the IC50 was in the range of 300 to 1000 nM.

In turn, `O=C(c1cc(Cc2n[nH]c(=O)c3ccccc23)ccc1F)N1CC[C@H](Nc2ccc(Cl)nn2)C1` [Compound I-112, (S)-4-(3-(3-((6-chloropyridazin-3-yl)amino)pyrrolidine-1-carbonyl)-4-fluorobenzyl)phthalazin-1(2H)-one] had a half-maximal inhibitory concentration (IC50) of 300 to 1000 nM.

For `O=C(c1cc(Cc2n[nH]c(=O)c3ccccc23)ccc1F)N1CC(C(=O)N2CCCC2)C1` [Compound I-22, 4-(4-fluoro-3-(3-(pyrrolidine-1-carbonyl)azetidine-1-carbonyl)benzyl)phthalazin-1(2H)-one], the IC50 was in the range of 50 to 300 nM.

Take `O=C(c1cc(Cc2n[nH]c(=O)c3ccccc23)ccc1F)N1CC(NCC2CCCC2)C1` [Compound I-55, 4-(3-(3-((cyclopentylmethyl)amino)azetidine-1-carbonyl)-4-fluorobenzyl)phthalazin-1(2H)-one]: the IC50 was 5 to 50 nM.

In turn, `O=C(c1cc(Cc2n[nH]c(=O)c3ccccc23)ccc1F)N1CC[C@@H](N2CCCCC2)C1` [Compound I-137, (R)-4-(4-fluoro-3-(3-(piperidin-1-yl)pyrrolidine-1-carbonyl)benzyl)phthalazin-1(2H)-one] returned an IC50 of 50 to 300 nM.

The compound `CC(C)CC(C)NC1CN(C(=O)c2cc(Cc3n[nH]c(=O)c4ccccc34)ccc2F)C1` (stereo not shown) [Compound I-46, 4-(4-fluoro-3-(3-((4-methylpentan-2-yl)amino)azetidine-1-carbonyl)benzyl)phthalazin-1(2H)-one] gave an IC50 of 5 to 50 nM.

The compound `O=C(c1cc(Cc2n[nH]c(=O)c3ccccc23)ccc1F)N1CC(NCCC(F)(F)F)C1` [Compound I-134, 4-(4-fluoro-3-(3-((3,3,3-trifluoropropyl)amino)azetidine-1-carbonyl)benzyl)phthalazin-1(2H)-one] returned an IC50 of 50 to 300 nM.

As to `O=C(c1cc(Cc2n[nH]c(=O)c3ccccc23)ccc1F)N1CC(N2CCCCC2)C1` [Compound I-77, 4-(4-fluoro-3-(3-(piperidin-1-yl)azetidine-1-carbonyl)benzyl)phthalazin-1(2H)-one], the IC50 lay within 50 to 300 nM.
